Data as given in US8293768B2, “Organic compounds” (Novartis AG, priority 2006, dated 2012).

What was measured:
[1] = biological target: T1, stearoyl-CoA desaturase (SCD1) (Mus musculus, UniProt P13516); assay: SCD microsomal assay: release of 3H2O from [9,10-3H]stearoyl-CoA in mouse liver microsomes; format: biochemical; conditions: 15 min incubation at 25° C.
T1 construct: Reactions are started by adding 50 μL of microsomes (1.25 mg/mL); from tissue; host or cells: liver microsomes of male ICR outbred mice on a high-carbohydrate, low fat diet
T1 sequence (P13516 1-355): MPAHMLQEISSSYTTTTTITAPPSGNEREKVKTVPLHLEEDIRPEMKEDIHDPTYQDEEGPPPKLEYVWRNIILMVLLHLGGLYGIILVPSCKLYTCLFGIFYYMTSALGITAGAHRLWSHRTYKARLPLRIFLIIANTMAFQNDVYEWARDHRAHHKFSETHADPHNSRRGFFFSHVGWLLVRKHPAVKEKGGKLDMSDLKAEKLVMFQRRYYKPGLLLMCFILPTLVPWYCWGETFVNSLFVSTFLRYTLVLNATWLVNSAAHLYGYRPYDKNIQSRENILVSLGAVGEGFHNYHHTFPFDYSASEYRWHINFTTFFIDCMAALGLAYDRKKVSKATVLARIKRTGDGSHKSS
Source text: The identification of compounds of the invention as SCD inhibitors was readily accomplished using the SCD enzyme and microsomal assay procedure described in Shanklin J. and Summerville C., Proc. Natl. Acad. Sci. USA (1991), Vol. 88, pp. 2510-2514.
Measuring Stearoyl-CoA Desaturase Inhibition Activity of a Test Compound Using Mouse Liver Microsomes
The identification of compounds of the invention as SCD inhibitors was readily accomplished using the SCD microsomal assay procedure described in Shanklin J. and Summerville C., Proc. Natl. Acad. Sci. USA (1991), Vol. 88, pp. 2510-2514.
Male ICR outbread mice, on a high-carbohydrate, low fat diet, under light halothane (15% in mineral oil) anesthesia are sacrificed by exsanguination during periods of high enzyme activity. Livers are immediately rinsed with cold 0.9% NaCl solution, weighed and minced with scissors. All procedures are performed at 4° C. unless specified otherwise. Livers are homogenized in a solution (1/3 w/v) containing 0.25 M sucrose, 62 mM potassium phosphate buffer (pH 7.0), 0.15 M KCl, 15 mM N-acetyleysteine, 5 mM MgCl2, and 0.1 mM EDTA using 4 strokes of a Potter-Elvehjem tissue homogenizer. The homogenate is centrifuged at 10,400×g for 20 min to eliminate mitochondria and cellular debris. The supernatant is filtered through a 3-layer cheesecloth and centrifuged at 105,000×g for 60 min. The microsomal pellet is gently resuspended in the same homogenization solution with a small glass/teflon homogenizer and stored at −70° C. The absence of mitochondrial contamination is enzymatically assessed. The protein concentration is measured using bovine serum albumin as the standard.
Desaturase activity is measured as the release of ^3H2O from [9,10-^3H]stearoyl-CoA. Reactions per assay point conditions are as follows: 2 μL 1.5 mM stearoyl-CoA, 0.25 μL 1 mCi/mL ^3H stearoyl CoA, 10 μL 20 mM NADH, 36.75 μL 0.1 M PK buffer (K2HPO4/NaH2PO4, pH 7.2). The test compound or control solution is added in a 1 μL volume. Reactions are started by adding 50 μL of microsomes (1.25 mg/mL). The plates are mixed and after 15 min incubation on a heating block (25° C.), the reactions are stopped by the addition of 10 μL 60% PCA. An aliquot of 100 μL is then transferred to a filter plate pretreated with charcoal and the plate centrifuged at 4000 rpm for 1 minute. The flow through containing the ^3H2O released by the SCD1 desaturation reaction is added to scintillation fluid and the radioactivity measured in a Packard TopCount. The data is analysed to identify the IC50 for test compounds and reference compounds. […] The activity was defined in terms of % SCD enzyme activity remaining at the desired concentration of the test compound or as the IC50 concentration. The IC50 (affinity) of the example compounds toward the stearoyl-CoA desaturase is comprised between around […] and 0.0001 μM or between around 5 μM and 0.0001 μM or between around 1 μM and 0.0001 μM.

Structure (SMILES) | IC50 [1] [nM] | melting point [°C]
Cc1nc(N2CCN(Cc3ccc(C(F)(F)F)cc3)C2=O)sc1Br [Example 45, 1-(5-bromo-4-methylthiazol-2-yl)-3-(4-(trifluoromethyl)benzyl)imidazolidin-2-one] | 459 | 107 to 108
CCOC(=O)c1ccc(CN2CCN(c3nc(C)c(C(=O)NCc4ccccc4)s3)C2=O)cc1 [Example 23.2, ethyl 4-((3-(5-(benzylcarbamoyl)-4-methylthiazol-2-yl)-2-oxoimidazolidin-1-yl)methyl)benzoate] | 61 | 118 to 120
Cc1cc(N2CCN(Cc3ccc(F)cc3)C2=O)sc1-c1nc(Cc2ccccc2)c[nH]1 [Example 60, 1-(5-(4-benzyl-1H-imidazol-2-yl)-4-methylthiophen-2-yl)-3-(4-fluorobenzyl)imidazolidin-2-one] | 428 | 
Cc1noc(-c2sc(N3CCN(Cc4ccc(C(F)(F)F)cc4)C3=O)nc2C)n1 [Example 44, 1-(4-methyl-5-(3-methyl-1,2,4-oxadiazol-5-yl)thiazol-2-yl)-3-(4-(trifluoromethyl)benzyl)imidazolidin-2-one] | 152 | 163 to 164
Cc1nc(N2CCN(Cc3ccc(C(F)(F)F)cc3)C2=O)sc1-c1ccno1 [Example 38.1, 1-(5-(isoxazol-5-yl)-4-methylthiazol-2-yl)-3-(4-(trifluoromethyl)benzyl)imidazolidin-2-one] | 1240 | 153 to 154
Cc1nc(N2CCN(Cc3ccccc3)C2=N)sc1C(=O)NCc1ccccc1 [Example 27.3, N-benzyl-2-(3-benzyl-2-iminoimidazolidin-1-yl)-4-methylthiazole-5-carboxamide] | 25 | 125 to 126
O=C(NCc1cccnc1)c1sc(N2CCN(Cc3ccc(F)cc3)C2=O)nc1C(F)(F)F [Example 26.1, 2-(3-(4-fluorobenzyl)-2-oxoimidazolidin-1-yl)-N-(pyridin-3-ylmethyl)-4-(trifluoromethyl)thiazole-5-carboxamide] | 39 | 161 to 162
Cc1nc(N2CCN(CC3CCCCO3)C2=O)sc1C(=O)NCc1ccccc1 (centres unmarked) [Example 23.6, N-benzyl-4-methyl-2-(2-oxo-3-((tetrahydro-2H-pyran-2-yl)methyl)imidazolidin-1-yl)thiazole-5-carboxamide] | 495 | 
CNC(=O)c1sc(N2CCN(Cc3ccc(F)cc3)C2=O)nc1C [Example 32.19, 2-(3-(4-fluorobenzyl)-2-oxoimidazolidin-1-yl)-N,4-dimethylthiazole-5-carboxamide] |  | 225 to 227
Cc1nc(N2CCN(Cc3ccc(Cl)cc3)C2=O)sc1C(=O)NCc1cccnc1 [Example 9.28, 2-(3-(4-chlorobenzyl)-2-oxoimidazolidin-1-yl)-4-methyl-N-(pyridin-3-ylmethyl)thiazole-5-carboxamide] |  | 178 to 179
Cc1nc(N2CCN(Cc3ccc(F)cc3)C2=O)sc1C(=O)NCc1cccnn1 [Example 32.15, 2-(3-(4-fluorobenzyl)-2-oxoimidazolidin-1-yl)-4-methyl-N-(pyridazin-3-ylmethyl)thiazole-5-carboxamide] |  | 222 to 225
Cc1nc(N2CCN(Cc3nc(C)n(-c4ccccc4)n3)C2=O)sc1C(=O)NCc1ccccc1 [Example 23.5, N-benzyl-4-methyl-2-(3-((5-methyl-1-phenyl-1H-1,2,4-triazol-3-yl)methyl)-2-oxoimidazolidin-1-yl)thiazole-5-carboxamide] |  | 139 to 141
CCOC(=O)c1sc(N2CCN(Cc3ccccc3)C2=O)nc1C [Example 5, ethyl 2-(3-benzyl-2-oxoimidazolidin-1-yl)-4-methylthiazole-5-carboxylate] |  | 122 to 124
Cc1nc(N2CCN(Cc3ccc(C(F)(F)F)cc3)C2=O)sc1C(=O)O [Example 6.5, 4-methyl-2-(2-oxo-3-(4-(trifluoromethyl)benzyl)imidazolidin-1-yl)thiazole-5-carboxylic acid] |  | 195 to 197
Cc1nc(N2CCN(Cc3cccc(F)c3)C2=O)sc1C(=O)NCc1ccccc1 [Example 23.3, N-benzyl-2-(3-(3-fluorobenzyl)-2-oxoimidazolidin-1-yl)-4-methylthiazole-5-carboxamide] |  | 155 to 156
Cc1nc(N2CCN(Cc3ccccc3)C2=O)sc1C(=O)NCc1ccc(F)cc1F [Example 9.4, 2-(3-benzyl-2-oxoimidazolidin-1-yl)-N-(2,4-difluorobenzyl)-4-methylthiazole-5-carboxamide] |  | 157 to 158
CCCCCN1CCN(c2nc(C)c(C(=O)NCc3cccnc3)s2)C1=O [Example 9.42, 4-methyl-2-(2-oxo-3-pentylimidazolidin-1-yl)-N-(pyridin-3-ylmethyl)thiazole-5-carboxamide] |  | 102 to 103
Cc1nc(N2CCN(Cc3ccc(F)cc3)C2=O)sc1C(=O)NCc1ncccn1 [Example 32.16, 2-(3-(4-fluorobenzyl)-2-oxoimidazolidin-1-yl)-4-methyl-N-(pyrimidin-2-ylmethyl)thiazole-5-carboxamide] |  | 205 to 207
O=C(O)c1cnc(N2CCN(CC3CC3)C2=O)s1 [Example 25.1, 2-(3-(cyclopropylmethyl)-2-oxoimidazolidin-1-yl)thiazole-5-carboxylic acid] |  | 250 to 252
Cc1nc(N2CCN(Cc3ccccc3C(F)(F)F)C2=O)sc1C(=O)NCc1ccccc1 [Example 23.1, N-benzyl-4-methyl-2-(2-oxo-3-(2-(trifluoromethyl)benzyl)imidazolidin-1-yl)thiazole-5-carboxamide] |  | 138 to 140
Cc1cc(N2CCN(Cc3ccc(F)cc3)C2=O)sc1C(=O)NC1Cc2ccccc2C1 [Example 55.8, N-(2,3-dihydro-1H-inden-2-yl)-5-(3-(4-fluorobenzyl)-2-oxoimidazolidin-1-yl)-3-methylthiophene-2-carboxamide] | 27 | 
Cc1nc(N2CCN(Cc3ccc(OC(F)(F)F)cc3)C2=O)sc1C(=O)NCc1ccccc1 [Example 9.23, N-benzyl-4-methyl-2-(2-oxo-3-(4-(trifluoromethoxy)benzyl)imidazolidin-1-yl)thiazole-5-carboxamide] |  | 197 to 198
Cc1nc(-n2cnn(CC3CC3)c2=O)sc1C(=O)NCc1cccnc1 [Example 21.4, 2-(1-(cyclopropylmethyl)-5-oxo-1H-1,2,4-triazol-4(5H)-yl)-4-methyl-N-(pyridin-3-ylmethyl)thiazole-5-carboxamide] |  | 116 to 117
Cc1csc(N2CCN(Cc3ccc(C(=O)O)cc3)C2=O)n1 [Example 6.23, 4-((3-(4-methylthiazol-2-yl)-2-oxoimidazolidin-1-yl)methyl)benzoic acid] |  | 222 to 224
Cc1nc(N2CCN(Cc3ccc(C(F)F)o3)C2=O)sc1C(=O)NCc1cccnc1 [Example 9.45, 2-(3-((5-(difluoromethyl)furan-2-yl)methyl)-2-oxoimidazolidin-1-yl)-4-methyl-N-(pyridin-3-ylmethyl)thiazole-5-carboxamide] |  | 142 to 143
Cc1cc(N2CCN(Cc3ccccc3)C2=O)sc1C(=O)NCc1cccnc1 [Example 15.1, 5-(3-benzyl-2-oxoimidazolidin-1-yl)-3-methyl-N-(pyridin-3-ylmethyl)thiophene-2-carboxamide] |  | 130 to 131
